In patent publication US20160159808A1, “HETEROCYCLIC COMPOUND” (TAKEDA PHARMACEUTICAL COMPANY LIMITED, priority 2013, published 2016):

How the values were obtained:
[1] = target: T1, human PDE2A3 enzyme (Homo sapiens, UniProt O00408); assay: PDE Enzyme Inhibitory Assay (SPA, [3H]cGMP substrate); type: biochemical; conditions: compound 1 μM; [3H]cGMP 77 nM; 60 min at room temperature; read-out: inhibitory rate (%) (1 μM)
T1 construct: Human PDE2A3 full-length gene was transduced into Sf9; His-tag; made in house; host or cells: Sf9 insect cells
Experimental: PDE Enzyme Inhibitory Assay Human PDE2A3 full-length gene was transduced into Sf9, and human PDE2A3 enzyme was purified by His-tag affinity column and gel filtration. The enzyme was stored at −70° C. until use. PDE activity was measured using a SPA (Scintillation Proximity Assay) (GE Healthcare). To evaluate the inhibitory activity of the compound, 10 μl of serial diluted compounds were reacted with 20 μl of PDE enzyme in assay buffer (50 mM HEPES-NaOH, 8.3 mM MgCl2, 1.7 mM EGTA, 0.1% BSA (pH 7.4)) for 30 min. at room temperature. Final concentration of DMSO in the reaction solution was 1 percent. Compounds were tested in duplicate in 96-well half-area plates (Corning) or 384-well OptiPlate (PerkinElmer). To start the reaction, 10 μl of substrate [^3H] cGMP (final concentration 77 nM, PerkinElmer) was added to a total volume of 40 μl. After reaction for 60 min at room temperature, 20 μl of 20 mg/mL yttrium SPA beads containing zinc sulfate was added to terminate the PDE reaction. After being settled for further 1 hour, the assay plates were counted in a scintillation counter (PerkinElmer) to allow calculation of inhibition rate. Inhibition rate was calculated on the basis of 0% control wells with enzyme and DMSO, and 100% control wells without enzyme.

[2] = system: Male C57BL/6 mice; assay: Contextual fear conditioning test, MK-801-induced deficits; type: in vivo; conditions: 30 mg/kg p.o. 60 min before test, MK-801 (maleate) 0.08 mg/kg s.c. 30 min before test, n=10, FIG. 1
Experimental: Improvement effect on MK-801 ((5S,10R)-5-methyl-10,11-dihydro-5H-5,10-epiminodibenzo[a,d][7]annulene)-induced disorder in contextual fear conditioning test.
Male C57BL/6 mice were purchased from CLEA Japan, Inc. They were used for an experiment after a habituation period of at least one week after carrying them in the animal experimental facility. They were bred in the animal experimental facility with environment in which 12-hours light-dark cycle was performed, humidity and temperature were controlled, and free water drinking and feeding were allowed. Handling of experimental animals and experimental procedure of this study were approved by the Experimental Animal Ethics Committee of Takeda Pharmaceutical Company Limited.
A test compound was suspended in 0.5% methylcellulose solution at a dose of 30 mg/kg, and orally administered. MK-801 (maleate) (Sigma-Aldrich, St Louis, Mo.) was dissolved in saline at a dose of 0.08 mg/kg, and subcutaneously administered. All drugs were administered to mice at a dose of 10 mL/kg.
Contextual fear conditioning test is widely used as memory and learning test system depending on the hippocampus and amygdala. The improvement effect of test compounds on MK-801-induced deficits was investigated by contextual fear conditioning test. The test compounds and MK-801 (maleate) were administered 60 min and 30 min, respectively, before the test. 0.5% methylcellulose and saline were administered to the control groups 60 min and 30 min, respectively, before the test. 0.5% methylcellulose and MK-801 (maleate) were administered to the vehicle groups 60 min and 30 min, respectively, before the test. […] In the test session on day 2 of the experiment, mice were placed in the same chamber for 7 minutes, and freezing was measured during that period. The freezing was calculated as a percentage of freezing rates during measuring period with use of an automatic analysis software manufactured by the O'Hara & Co., Ltd. All data were shown as the mean+standard error (n=10). […]

T1 sequence (O00408 whole entry): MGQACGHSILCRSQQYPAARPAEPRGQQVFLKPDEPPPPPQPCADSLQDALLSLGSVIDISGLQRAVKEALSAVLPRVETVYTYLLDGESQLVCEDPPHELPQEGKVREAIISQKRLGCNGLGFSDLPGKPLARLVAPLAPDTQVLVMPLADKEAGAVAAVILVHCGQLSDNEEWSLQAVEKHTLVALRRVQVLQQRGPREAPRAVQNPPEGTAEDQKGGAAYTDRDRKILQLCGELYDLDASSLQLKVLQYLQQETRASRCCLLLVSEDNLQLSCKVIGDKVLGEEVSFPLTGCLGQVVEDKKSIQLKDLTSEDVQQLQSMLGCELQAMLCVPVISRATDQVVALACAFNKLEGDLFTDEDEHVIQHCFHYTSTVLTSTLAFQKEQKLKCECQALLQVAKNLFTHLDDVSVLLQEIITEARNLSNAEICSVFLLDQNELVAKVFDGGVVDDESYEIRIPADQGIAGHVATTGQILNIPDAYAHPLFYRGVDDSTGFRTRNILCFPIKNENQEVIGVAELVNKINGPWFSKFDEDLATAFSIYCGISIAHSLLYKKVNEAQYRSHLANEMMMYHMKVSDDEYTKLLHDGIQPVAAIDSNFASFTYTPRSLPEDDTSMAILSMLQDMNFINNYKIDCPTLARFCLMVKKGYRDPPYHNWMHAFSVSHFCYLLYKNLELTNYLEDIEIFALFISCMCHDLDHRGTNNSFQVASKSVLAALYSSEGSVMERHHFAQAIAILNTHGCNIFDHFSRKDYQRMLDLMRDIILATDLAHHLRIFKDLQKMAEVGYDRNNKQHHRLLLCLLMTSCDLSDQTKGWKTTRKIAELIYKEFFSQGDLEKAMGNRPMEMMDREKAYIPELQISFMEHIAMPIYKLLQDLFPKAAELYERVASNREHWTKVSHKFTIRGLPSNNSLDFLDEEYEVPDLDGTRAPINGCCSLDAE

Compound	inhibition at 1 µM [1] [%]	improvement effect on MK-801-induced deficits in contextual fear conditioning test (freezing) [2]
COCC(NC(=O)c1cc(=O)[nH]c2cccnc12)c1ccc(OC(F)(F)F)cc1 (stereo not shown) [Example 1, N-(2-methoxy-1-(4-(trifluoromethoxy)phenyl)ethyl)-2-oxo-1,2-dihydro-1,5-naphthyridine-4-carboxamide]	99	–
COC[C@@H](NC(=O)c1cnn2cc(C)cnc12)c1ccc(OC(F)(F)F)c(F)c1 [Example 12, N-((1S)-1-(3-fluoro-4-(trifluoromethoxy)phenyl)-2-methoxyethyl)-6-methylpyrazolo[1,5-a]pyrimidine-3-carboxamide]	99	–
CCN(C)c1ccn2ncc(C(=O)NC(c3ccc(OC(F)(F)F)c(F)c3)C(C)(C)O)c2n1 (stereo not shown) [Example 29, 5-(ethyl(methyl)amino)-N-(1-(3-fluoro-4-(trifluoromethoxy)phenyl)-2-hydroxy-2-methylpropyl)pyrazolo[1,5-a]pyrimidine-3-carboxamide]	100	–
COCC(NC(=O)c1cnn2ccc(N3CCOCC3)nc12)c1ccc(OC(F)(F)F)c(F)c1 (stereo not shown) [Example 38, N-(1-(3-fluoro-4-(trifluoromethoxy)phenyl)-2-methoxyethyl)-5-(morpholin-4-yl)pyrazolo[1,5-a]pyrimidine-3-carboxamide]	98	–
Cn1cc(C(=O)N[C@@H](c2ccc(OC(F)(F)F)c(F)c2)C(C)(C)O)c2nc(C3CC3)cc(=O)n21 [Example 66, 5-cyclopropyl-N-((1S)-1-(3-fluoro-4-(trifluoromethoxy)phenyl)-2-hydroxy-2-methylpropyl)-1-methyl-7-oxo-1,7-dihydropyrazolo[1,5-a]pyrimidine-3-carboxamide]	98	–
CC(C)(O)[C@@H](NC(=O)c1cnn2ccc(-c3cnn(C(F)F)c3)nc12)c1ccc(OC(F)(F)F)cc1 [Example 70, 5-(1-(difluoromethyl)-1H-pyrazol-4-yl)-N-((1S)-2-hydroxy-2-methyl-1-(4-(trifluoromethoxy)phenyl)propyl)pyrazolo[1,5-a]pyrimidine-3-carboxamide]	101	–
CC(C)(O)[C@@H](NC(=O)c1cnn2ccc(-c3ccccn3)nc12)c1ccc(OC(F)(F)F)cc1 [Example 72, N-((1S)-2-hydroxy-2-methyl-1-(4-(trifluoromethoxy)phenyl)propyl)-5-(pyridin-2-yl)pyrazolo[1,5-a]pyrimidine-3-carboxamide]	100	–
CC1(C)CCN(c2ccn3ncc(C(=O)N[C@@H](c4ccc(OC(F)(F)F)cc4)C(C)(C)O)c3n2)C1=O [Example 135, 5-(3,3-dimethyl-2-oxopyrrolidin-1-yl)-N-((1S)-2-hydroxy-2-methyl-1-(4-(trifluoromethoxy)phenyl)propyl)pyrazolo[1,5-a]pyrimidine-3-carboxamide]	100	–

Further lines, with some results ahead:

inhibition at 1 µM [1] [%]	Compound	improvement effect on MK-801-induced deficits in contextual fear conditioning test (freezing) [2]
101	Cc1cn2ncc(C(=O)NC(c3ccc(OC(F)(F)F)c(F)c3)C(C)(C)O)c2nc1N1CCC1 (stereo not shown) [Example 59, 5-(azetidin-1-yl)-N-(1-(3-fluoro-4-(trifluoromethoxy)phenyl)-2-hydroxy-2-methylpropyl)-6-methylpyrazolo[1,5-a]pyrimidine-3-carboxamide]	–
100	Cc1ccc(-c2ccn3ncc(C(=O)N[C@@H](c4ccc(OC(F)(F)F)cc4)C(C)(C)O)c3n2)cn1 [Example 69, N-((1S)-2-hydroxy-2-methyl-1-(4-(trifluoromethoxy)phenyl)propyl)-5-(6-methylpyridin-3-yl)pyrazolo[1,5-a]pyrimidine-3-carboxamide]	improvement effect on MK-801-induced deficits was shown
100	Cn1cc(C(=O)N[C@@H](c2ccc(OC(F)(F)F)cc2)C(C)(C)O)c2nc(-c3ccccn3)cc(=O)n21 [Example 77, N-((1S)-2-hydroxy-2-methyl-1-(4-(trifluoromethoxy)phenyl)propyl)-1-methyl-7-oxo-5-(pyridin-2-yl)-1,7-dihydropyrazolo[1,5-a]pyrimidine-3-carboxamide]	–
101	Cc1cn2ncc(C(=O)N[C@@H](c3ccc(OC(F)(F)F)cc3)C(C)(C)O)c2nc1-n1cnc(C(F)(F)F)c1 [Example 79, N-((1S)-2-hydroxy-2-methyl-1-(4-(trifluoromethoxy)phenyl)propyl)-6-methyl-5-(4-(trifluoromethyl)-1H-imidazol-1-yl)pyrazolo[1,5-a]pyrimidine-3-carboxamide]	–
100	Cc1cn(-c2nc3c(C(=O)N[C@@H](c4ccc(OC(F)(F)F)cc4)C(C)(C)O)cnn3cc2C)nn1 [Example 80, N-((1S)-2-hydroxy-2-methyl-1-(4-(trifluoromethoxy)phenyl)propyl)-6-methyl-5-(4-methyl-1H-1,2,3-triazol-1-yl)pyrazolo[1,5-a]pyrimidine-3-carboxamide]	improvement effect on MK-801-induced deficits was shown
100	Cc1cn2ncc(C(=O)N[C@@H](c3ccc(OC(F)(F)F)cc3)C(C)(C)O)c2nc1-c1cnn(C(F)F)c1 [Example 83, 5-(1-(difluoromethyl)-1H-pyrazol-4-yl)-N-((1S)-2-hydroxy-2-methyl-1-(4-(trifluoromethoxy)phenyl)propyl)-6-methylpyrazolo[1,5-a]pyrimidine-3-carboxamide]	–
100	COC[C@@H](NC(=O)c1cc(=O)[nH]c2cc(C)cnc12)c1ccc(OC(F)(F)F)cc1 [Example 92, N-((1S)-2-methoxy-1-(4-(trifluoromethoxy)phenyl)ethyl)-7-methyl-2-oxo-1,2-dihydro-1,5-naphthyridine-4-carboxamide]	–
100	CC(C)(O)[C@@H](NC(=O)c1cnn2ccc(-c3ccccc3C#N)nc12)c1ccc(OC(F)(F)F)c(F)c1 [Example 101, 5-(2-cyanophenyl)-N-((1S)-1-(3-fluoro-4-(trifluoromethoxy)phenyl)-2-hydroxy-2-methylpropyl) pyrazolo[1,5-a]pyrimidine-3-carboxamide]	–
101	Cc1cn(-c2ccn3ncc(C(=O)N[C@@H](c4ccc(OC(F)(F)F)cc4)C(C)(C)O)c3n2)cn1 [Example 115, N-((1S)-2-hydroxy-2-methyl-1-(4-(trifluoromethoxy)phenyl)propyl)-5-(4-methyl-1H-imidazol-1-yl)pyrazolo[1,5-a]pyrimidine-3-carboxamide]	–
99	CC1(C)CN(c2ccn3ncc(C(=O)N[C@@H](c4ccc(OC(F)(F)F)cc4)C(C)(C)O)c3n2)CCO1 [Example 124, 5-(2,2-dimethylmorpholin-4-yl)-N-((1S)-2-hydroxy-2-methyl-1-(4-(trifluoromethoxy)phenyl)propyl)pyrazolo[1,5-a]pyrimidine-3-carboxamide]	–
100	COC[C@@H](NC(=O)c1cc(=O)[nH]c2cc(OC)cnc12)c1ccc(OC(F)(F)F)c(F)c1 [Example 152, N-((1S)-1-(3-fluoro-4-(trifluoromethoxy)phenyl)-2-methoxyethyl)-7-methoxy-2-oxo-1,2-dihydro-1,5-naphthyridine-4-carboxamide]	–
97	CC(C)(O)[C@@H](NC(=O)c1ccc2cncc(-c3ccccc3)c2n1)c1ccc(OC(F)(F)F)cc1 [Example 164, N-((1S)-2-hydroxy-2-methyl-1-(4-(trifluoromethoxy)phenyl)propyl)-8-phenyl-1,6-naphthyridine-2-carboxamide]	–
